Experimental data as given in patent US7745424B2, “Alkane diol derivatives as therapeutic agents for the treatment of bone conditions” (The Univeristy Court of the University of Aberdeen, priority 2001, dated 2010).
“Also recorded” adds a separate entry of the source.

What was measured:
osteoclasts = assay: Murine co-culture system (osteoblast-bone marrow co-culture on dentine); type: cell-based, mice; conditions: for inhibition of osteoclast formation and activity: murine co-culture system
Experimental: The first model system, the murine co-culture system, studies the formation of osteoclasts_from precursors present in the bone marrow. The number of osteoclasts and the amount of dentine resorption was measured.
Osteoclast formation and activity was studied using an adaptation (see, e.g., van't Hof & Ralston, 1997) of the osteoblast-bone marrow co-culture assay originally described by Takahashi et al., 1988.
Co-Culture Methods. Co-culture (see, e.g., Van't Hof et al., 1997) is a method to study the formation of osteoclasts from their precursors. In this assay, osteoblasts were obtained from the calvaria of 2-3 day old neonatal mice. These were plated on dentine, stimulated with 1,25-dihydroxy vitamin D3 to stimulate RANKL and M-CSF expression. Early osteoclast precursors were present in the bone marrow of adult mice. The bone marrow suspension was purified to remove the red blood cells and the remainder cultured on top of the osteoblast layer. The stimulatory factors then allowed the osteoclast precursors to differentiate into mature osteoclasts. At the end of the culture osteoclasts were identified by TRAcP staining and the resorption activity was measured in the same manner as for rabbit osteoclasts.
Preparation of Dentine. The dentine was elephant ivory, preferred to bone because of its uniform surface, which facilitates easy visualisation of resorption pits. It was cut into slices of approximately 200 μm thickness using a Buehler Isomet low speed saw with a diamond wafering blade (series 15 HC). These slices were polished by hand, to a high degree, until one side was shiny. Out of these slices, discs were punched that fit the wells of a 96 well plate, using a paper puncher. Excess residues from the polish were removed by sonication. The discs were then stored in 70% ethanol until required. These discs were then dried and placed shiny side up in the wells of a 96 well plate. Cells were seeded onto the dentine. Following completion of the culture, these dentine slices were carefully removed from the plate and studied under the microscope.
Osteoblast Isolation. Briefly, osteoblasts were isolated from the calvarial bones of 2-day-old mice by sequential collagenase digestion (type I collagenase, Sigma) and cultured in αMEM supplemented with 10% FCS (foetal calf serum) and penicillin and streptomycin at 37° C. in 5% CO2.
More specifically, osteoblasts were obtained from a collagenase digestion of the calvaria (skull bones) of 2-3 day old neo-natal MF1 mice. At this stage in their development these are soft and easily removed. The calvaria from 5-6 mice were carefully dissected and washed in HBSS (Hank's balanced saline solution). The calvaria were placed in a 15 ml tube and shaken at 37° C. in 4 ml collagenase (10 mg/ml) for 10 minutes. This removes the excess unwanted tissue. The liquid was disposed of and a further 4 ml collagenase (10 mg/ml) added to the tube. The calvaria were then digested for a further 30 minutes. After this the supernatant (F1) was removed and retained. The calvaria were washed with a 2×4 ml PBS and this was added to F1. 4 ml EDTA (ethylene diamine tetraacetic acid) (4 mM in PBS) was then added to complex the calcium and allow further extraction of osteoblasts. This was shaken for 10 minutes at 37° C. The supernatant was removed and retained (F2). The calvaria were again washed with 2×4 ml HBSS and this was added to F2. The final 4 ml of collagenase (10 mg/ml) was added to the tube and this was again shaken at 37° C. for 30 minutes. […]

[1] = test system: macrophage cell line J774; assay: MTT macrophage J774 viability assay; type: cell-based; conditions: MTT assay; for IC50: Mus musculus, macrophage J774 viability
Experimental: MTT (3-(4,5-dimethylthiazol-2-yl)-2,5-diphenyl tetrazolium bromide) has an […] colour and is soluble in the medium used for cell culture. The mitochondrial enzyme succinate dehydrogenase acts upon MTT in living cells to produce the insoluble purple coloured formazan. The amount of formazan produced, as measured by UV/visible spectroscopy, is proportional to the number of viable cells.
The medium was carefully removed using a needle without dislodging the crystal layer. 100 μL acidified isopropanol (4 M HCl 1:100 v/v in isopropanol) was added to each well and the purple crystals allowed to dissolve. The absorbance was measured in a plate reader at 540 nm, with 690 nm as reference. The controls were a deep purple colour, indicating a high number of live cells.
Addition of Compounds. […] These stock solutions were then diluted 100× in culture medium.

rabbit osteoclasts = assay: Rabbit osteoclast culture system; type: cell-based; conditions: for rabbit osteoclast numbers / resorption activity: rabbit osteoclast culture on dentine
Description: The second model system was the rabbit osteoclast system, where mature, functional osteoclasts were isolated from the long bones of rabbits and cultured on dentine slices.
Osteoclast Isolation. Osteoclasts were isolated from the long bones of 2-10 day-old rabbits, as described previously (see, e.g., reference Coxon et al., 2000). All 4 limbs were removed from the rabbits and placed in ice-cold PBS. Soft tissue and cartilage were removed and the bones transferred into fresh PBS. The bones were minced in aMEM (without FCS), using a scalpel. All the medium and fragments were transferred to a 50 ml tube, vortexed for 3×10 seconds and left to stand for 1 minute. The supernatant was removed and made up to 50 ml/rabbit with medium and FCS so as to give a final concentration of 10% FCS.
Osteoclast Plating. The cells were plated onto dentine slices in a 96 well plate, at 100 μL/well (medium: αMEM supplemented with 10% FCS and penicillin and streptomycin) and left for 4 hours to allow adherence to the dentine. After this period the medium was removed, and with it the non-adherent cells. Fresh medium was then added. The remaining population was highly enriched in osteoclasts.
Culturing. At this point, test compounds to be studied were added and the cells cultured at 37° C. in 5% CO2 for 48 hours. At the end of the culture, the osteoclasts were identified by staining for tartrate-resistant acid phosphatase (TRAcP) staining. A good number of osteoclasts in the controls was 100-200.
The resorption pit area was quantified by reflected light microscopy as described previously (see, e.g., van't Hof & Ralston, 1997) and again the results expressed as a % of the control values.

[2] = test system: macrophage cell line J774; assay: Alamar Blue macrophage J774 viability assay; conditions: Mus musculus, J774, 72 h, read-out: IC50 (μM) Alamar Blue

SMILES	inhibition of osteoclast formation and activity (osteoclasts)	macrophage J774 viability, activity in words ([1]; range of concentrations (FIGS. 4-7))	IC50 [1] [µM]	rabbit osteoclast numbers (rabbit osteoclasts)	resorption activity (rabbit osteoclasts)	number of murine osteoclasts (osteoclast precursors) (osteoclasts; compound added at Day 2, removed at Day 4, terminated at Day 10 (FIG. 15))	resorption pit area (osteoclast precursors) (osteoclasts; compound added at Day 2, removed at Day 4, terminated at Day 10, all concentrations tested (FIG. 16))	concentrations showing a significant effect (rabbit osteoclasts; osteoclast numbers and resorption activity) [µM]	IC50 [2] [µM]
OCCCCO [1,4-butanediol, reference compound]	no detected effect	–	–	–	–	–	–	–	–
O=C(OCCCCCCO)c1ccc(-c2ccccc2)cc1 [ABD-0054, 1,6-Hexanediol mono(biphenyl-4-carboxylic acid)Ester]	significantly inhibited	next most active	35	significantly reduced	significantly reduced	–	–	–	–
O=C(OCCCCO)c1ccc(-c2ccccc2)cc1 [ABD-0056, 1,4-Butanediol mono(biphenyl-4-carboxylic acid)Ester]	significantly inhibited; also recorded: potent inhibitor	–	3.5	significantly reduced	significantly reduced	even more effective against osteoclast precursor formation than against mature osteoclasts	virtually no resorption	≥ 10	18
